Measurements: patent EP3478687B1 (Daewoong Pharmaceutical Co., Ltd., priority 2016, dated 2018)

Key:
[1] = target: T1, Recombinant purified human JAK3 (Homo sapiens, UniProt P52333); assay: JAK3 kinase inhibitory activity, ADP-Glo kinase assay (Promega V9441); assay type: biochemical; conditions: for IC50: ATP 5 uM, 4 ng JAK3 per reaction, 1 hour 30 °C, chemiluminescence; for inhibition at 0.1 µM: @100nM compound, printed in the JAK3 IC50 column
T1 construct: purchased Promega V9441
T1 sequence (P52333 1-1124): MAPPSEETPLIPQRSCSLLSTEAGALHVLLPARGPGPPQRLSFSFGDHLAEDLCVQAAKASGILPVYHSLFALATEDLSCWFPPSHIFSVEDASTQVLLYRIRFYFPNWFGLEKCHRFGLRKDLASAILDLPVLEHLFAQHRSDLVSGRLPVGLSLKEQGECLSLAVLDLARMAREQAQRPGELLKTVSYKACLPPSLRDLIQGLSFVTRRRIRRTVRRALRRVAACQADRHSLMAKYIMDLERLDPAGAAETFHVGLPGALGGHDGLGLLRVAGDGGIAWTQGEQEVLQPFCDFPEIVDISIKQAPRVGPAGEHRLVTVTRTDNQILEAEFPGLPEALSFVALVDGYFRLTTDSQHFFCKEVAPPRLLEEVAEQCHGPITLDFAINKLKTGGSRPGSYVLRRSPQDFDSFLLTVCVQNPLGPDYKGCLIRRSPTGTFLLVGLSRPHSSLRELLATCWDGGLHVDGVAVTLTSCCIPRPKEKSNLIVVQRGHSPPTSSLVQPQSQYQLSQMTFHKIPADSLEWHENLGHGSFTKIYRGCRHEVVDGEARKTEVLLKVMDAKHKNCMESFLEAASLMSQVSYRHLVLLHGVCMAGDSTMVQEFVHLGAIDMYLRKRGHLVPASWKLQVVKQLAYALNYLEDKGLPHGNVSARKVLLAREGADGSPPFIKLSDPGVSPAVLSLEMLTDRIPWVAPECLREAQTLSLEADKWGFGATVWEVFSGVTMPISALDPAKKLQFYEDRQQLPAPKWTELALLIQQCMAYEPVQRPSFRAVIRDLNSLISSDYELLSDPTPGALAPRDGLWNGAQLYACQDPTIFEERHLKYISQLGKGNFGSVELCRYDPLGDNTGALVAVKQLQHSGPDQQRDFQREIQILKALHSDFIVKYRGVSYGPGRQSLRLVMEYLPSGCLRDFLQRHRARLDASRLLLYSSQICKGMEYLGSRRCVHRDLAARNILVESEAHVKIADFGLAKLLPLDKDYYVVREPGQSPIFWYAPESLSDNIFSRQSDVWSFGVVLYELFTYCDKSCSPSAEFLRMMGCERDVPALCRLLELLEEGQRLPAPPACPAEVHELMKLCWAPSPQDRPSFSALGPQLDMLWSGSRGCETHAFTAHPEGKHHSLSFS
Description: (§1) JAK3 and BTK kinase inhibitory activities were measured for the compounds prepared in the above Examples through in vitro analysis on the ADP Glow (Glo) platform.
(§2) Specifically, the inhibitory activities of JAK3 and BTK kinase were measured using a JAK3 kinase assay kit (Promega, V9441) and a BTK kinase assay kit (Promega, V9071) which were purchased from Promega. Recombinant purified human JAK3 and BTK were diluted with 1 x kinase reaction buffer (JAK3: 40 mM Tris-Cl, pH 7.5, 20 mM MgCh, 0.1 mg/mL BSA and 50 uM DTT / BTK: 40 mM Tris-Cl, pH 7.5, 20 mM MgCl2, 0.1 mg/mL BSA, 2 mM MnCl2 and 50 uM DTT) and added to a 96 well plate (JAK3: final concentration of 4 ng per reaction/BTK: final concentration of 8 ng per reaction). The compounds were treated so as to be finally a 1% DMSO aqueous solution, and a substrate cocktail containing ATP (JAK3: final concentration of 5 uM / BTK: final concentration of 10 uM) and 0.2 µg/µL of Poly(Glu4, Tyr1) peptide (JAK3 and BTK final concentration) in the total 25 µL reactants was added to a 96-well plate to initiate enzymatic reaction. After incubation (30 °C) for 1 hour, equivalent volume (25 µL per reaction) of ADP Glo was added and incubated (30 °C) for 40 minutes at room temperature. Then, a kinase detection reagent (50 µL per reaction) was added and incubated (30 °C) for 30 minutes at room temperature. The kinase activity was measured by chemiluminescence according to the instructions of ADP Glo kinase assay kit, and the inhibitory activity of the compounds according to the present invention was calculated. For the analysis of the results of each compound, Microsoft Excel was used, and IC50 values were calculated by SigmaPlot software.

[2] = target: T2, Recombinant purified human BTK (Homo sapiens, UniProt Q06187); assay: BTK kinase inhibitory activity, ADP-Glo kinase assay (Promega V9071); assay type: biochemical; conditions: for IC50: ATP 10 uM, 8 ng BTK per reaction, 1 hour 30 °C, chemiluminescence; for inhibition at 0.1 µM: @100nM compound
T2 construct: purchased Promega V9071
T2 sequence (Q06187 whole entry): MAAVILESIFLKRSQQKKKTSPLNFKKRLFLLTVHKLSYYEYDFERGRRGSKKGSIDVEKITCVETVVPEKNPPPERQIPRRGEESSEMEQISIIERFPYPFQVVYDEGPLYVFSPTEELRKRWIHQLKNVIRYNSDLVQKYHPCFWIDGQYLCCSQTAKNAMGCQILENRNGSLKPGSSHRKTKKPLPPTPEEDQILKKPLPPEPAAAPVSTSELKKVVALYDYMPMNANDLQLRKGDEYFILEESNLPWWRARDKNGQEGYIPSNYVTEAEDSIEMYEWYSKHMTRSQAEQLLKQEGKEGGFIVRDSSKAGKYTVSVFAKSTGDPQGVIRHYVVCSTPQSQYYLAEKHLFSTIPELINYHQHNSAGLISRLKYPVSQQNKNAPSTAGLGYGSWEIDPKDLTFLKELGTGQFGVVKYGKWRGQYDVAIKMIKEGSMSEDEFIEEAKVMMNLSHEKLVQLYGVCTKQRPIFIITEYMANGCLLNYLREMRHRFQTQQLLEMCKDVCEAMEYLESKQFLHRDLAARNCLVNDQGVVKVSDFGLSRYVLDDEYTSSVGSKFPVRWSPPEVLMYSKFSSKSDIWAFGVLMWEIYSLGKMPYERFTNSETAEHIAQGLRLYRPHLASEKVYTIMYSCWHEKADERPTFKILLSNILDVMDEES
Description: as §1, §2

| Compound | IC50 [1] [nM] | IC50 [2] [nM] | inhibition at 0.1 µM [1] [%] | inhibition at 0.1 µM [2] [%] |
| --- | --- | --- | --- | --- |
| C=CC(=O)N1CCC[C@@H](Nc2nc(Nc3ccc(N4CCN(C)CC4)cc3)nc3[nH]ccc23)C1 [Example 1, (R)-1-(3-(2-(4-(4-methylpiperazin-1-yl)phenylamino)-7H-pyrrolo[2,3-d]pyrimidin-4-ylamino)piperidin-1-yl)prop-2-en-1-one] | 3.73 | 10.7 | – | – |
| C=CC(=O)N1CCC[C@@H](Nc2nc(Nc3cccc(NC(=O)N4CCCC4)c3)nc3[nH]ccc23)C1 [Example 2, (R)-N-(3-(4-(1-acryloylpiperidin-3-ylamino)-7H-pyrrolo[2,3-d]pyrimidin-2-ylamino)phenyl)pyrrolidine-1-carboxamide] | 8.9 | 27 | – | – |
| C=CC(=O)N1CCC[C@H](Nc2nc(Nc3cccc(NC(=O)N4CCCC4)c3)nc3[nH]ccc23)C1 [Example 3, (S)-N-(3-(4-(1-acryloylpiperidin-3-ylamino)-7H-pyrrolo[2,3-d]pyrimidin-2-ylamino)phenyl)pyrrolidine-1-carboxamide] | – | – | 28.2 | 30 |
| C=CC(=O)N1CCC[C@@H](Nc2nc(Nc3ccc(N4CCOCC4)cc3)nc3[nH]ccc23)C1 [Example 4, (R)-1-(3-(2-(4-morpholinophenylamino)-7H-pyrrolo[2,3-d]pyrimidin-4-ylamino)piperidin-1-yl)prop-2-en-1-one] | 6.9 | 26.7 | – | – |
| C=CC(=O)N1CCC[C@@H](Nc2nc(Nc3ccc(N4CCCC4)cc3)nc3[nH]ccc23)C1 [Example 5, (R)-1-(3-(2-(4-(pyrrolidin-1-yl)phenylamino)-7H-pyrrolo[2,3-d]pyrimidin-4-ylamino)piperidin-1-yl)prop-2-en-1-one] | 24.6 | 76.7 | – | – |
| C=CC(=O)N1CCC[C@@H](Nc2nc(Nc3ccc(-n4nc(C)cc4C)cc3)nc3[nH]ccc23)C1 [Example 6, (R)-1-(3-(2-(4-(3,5-dimethyl-1H-pyrazol-1-yl)phenylamino)-7H-pyrrolo [2,3-d]pyrimidin-4-ylamino)piperidin-1-yl)prop-2-en-1-one] | 4.6 | 9.6 | – | – |
| C=CC(=O)N1CCC[C@@H](Nc2nc(Nc3ccc(OCCN(CC)CC)cc3)nc3[nH]ccc23)C1 [Example 7, (R)-1-(3-(2-(4-(2-(diethylamino)ethoxy)phenylamino)-7H-pyrrolo[2,3-d]pyrimidin-4-ylamino)piperidin-1-yl)prop-2-en-1-one] | 5 | 14 | – | – |
| C=CC(=O)N1CCC[C@@H](Nc2nc(Nc3ccc(C(=O)N4CCOCC4)cc3)nc3[nH]ccc23)C1 [Example 8, (R)-1-(3-(2-(4-(morpholine-4-carbonyl)phenylamino)-7H-pyrrolo[2,3-d]pyrimidin-4-ylamino)piperidin-1-yl)prop-2-en-1-one] | 1.3 | 14.3 | – | – |
| C=CC(=O)N1CCC[C@@H](Nc2nc(Nc3ccc(N(C)C)cc3)nc3[nH]ccc23)C1 [Example 9, (R)-1-(3-(2-(4-(dimethylamino)phenylamino)-7H-pyrrolo[2,3-d]pyrimidin-4-ylamino)piperidin-1-yl)prop-2-en-1-one] | 3.9 | 20.5 | – | – |
| C=CC(=O)N1CCC[C@@H](Nc2nc(Nc3cccc(-n4nc(C)cc4C)c3)nc3[nH]ccc23)C1 [Example 10, (R)-1-(3-(2-(3-(3,5-dimethyl-1H-pyrazol-1-yl)phenylamino)-7H-pyrrolo [2,3-d]pyrimidin-4-ylamino)piperidin-1-yl)prop-2-en-1-one] | – | – | 32.8 | 23.7 |
| C=CC(=O)N1CCC[C@H](Nc2nc(Nc3ccc(N4CCN(C)CC4)cc3)nc3[nH]ccc23)C1 [Example 11, (S)-1-(3-(2-(4-(4-methylpiperazin-1-yl)phenylamino)-7H-pyrrolo[2,3-d]pyrimidin-4-ylamino)piperidin-1-yl)prop-2-en-1-one] | – | – | 36 | 26.5 |
| C=CC(=O)N1CCC[C@@H](Nc2nc(Nc3ccc4ncsc4c3)nc3[nH]ccc23)C1 [Example 12, (R)-1-(3-(2-(benzo[d]thiazol-6-ylamino)-7H-pyrrolo[2,3-d]pyrimidin-4-ylamino)piperidin-1-yl)prop-2-en-1-one] | 1.3 | 10.6 | – | – |
